Test results published in paper PMC7725506, “Functional Diversification of SRSF Protein Kinase to Control Ubiquitin-Dependent Neurodevelopmental Signaling” (Developmental Cell, 2020).

Experiments:
[1] = test system: RNF12 SR-motif; assay: RNF12 SR-motif phosphorylation in mESCs by phos-tag immunoblotting; format: cell-based, mouse; conditions: 4 h
Text: RNF12 4xSA = S212A/S214A/S227A/S229A. (B) Rlim^−^/y mESCs were transfected with the indicated RNF12 constructs and lysates treated with λ-phosphatase and analyzed by phos-tag immunoblotting for RNF12. Unphosphorylated recombinant RNF12 is included as a control. […] RNF12 4xSA is included as an unphosphorylated control. […] (F) Phosphorylated peptides detected by mass spectrometry following in vitro phosphorylation of RNF12 by SRPK1. pS, phospho-serine. (G) Autoradiography of RNF12 WT or S212A/S214A/S227A/S229A (4xSA) following a radioactive kinase reaction with SRPK1, SRPK2, or SRPK3. RNF12 protein is detected by Coomassie staining. (H) Srpk1^+/+ and Srpk1^−/− mESCs were transfected with control or SRPK2 siRNA and RNF12 SR-motif phosphorylation analyzed by phos-tag immunoblotting for RNF12. SRPK2, SRPK1, RNF12, and ERK1/2 levels were determined by immunoblotting. Related to Figure S2; Tables S3 and S4.
All compounds were diluted in DMSO and mESCs treated with 10 μM inhibitor for 4 h prior lysis unless indicated otherwise. […] For proteasome inhibition mESCs were treated with 10 μM MG132 (Sigma Aldrich) for 6 h. All chemicals are listed in the Key Resource Table.
Phos-tag analyses were performed by loading protein samples containing 10 mM MnCl2 in 8% polyacrylamide gels containing 50 μM Phos-tag reagent (MRC-PPU reagents and services) and 0.1 mM MnCl2. After electrophoresis, gels were washed three times for 10 mins in Transfer buffer (48 mM Tris, 39 mM Glycine, 20% Methanol) supplemented with 20 mM EDTA. Proteins were then transferred to Nitrocellulose membranes, blocked and probed with the indicated antibodies. All protein signals were quantified using Image Studio (LI-COR Biosciences) or Image Lab software (Bio-Rad). Primary antibodies are listed in the Key Resource Table. […]
SR-motif phosphorylation of HA-immunoprecipitated RNF12 analysed by phos-tag immunoblotting.
HA-RNF12 levels are shown as a control. Fully phosphorylated (4-P) and unphosphorylated (0-P) RNF12 SR-motif is indicated by open (○) and closed (●) circles respectively.
Data are represented as mean ± S.D. (n=3). (C) RNF12 expressing mESCs were treated with 10 […]
immunoblotting. HA-RNF12 and ERK1/2 levels are shown as a control. (D) RNF12 expressing […]
5 h (+ wash-out). RNF12 phosphorylation was analysed via phos-tag immunoblotting. ERK1/2 levels are shown as a loading control. (E) Multiple Srpk1-/- and Srpk2-/- mESC clones were […]

[2] = test system: Ser-Arg rich splicing factors (SRSF); assay: SRSF phosphorylation in mESCs, immunoblotting with phosphoepitope SR proteins antibody; format: cell-based, mouse; conditions: 10 μM, 4 h
[3] = molecular target: SRPK2 (Homo sapiens, UniProt P78362); assay: REX1 fluorescent ubiquitylation assay with recombinant RNF12 incubated with SRPK2; format: biochemical; conditions: pre-incubation with 10 μM
SRPK2, sequence (P78362 1-699 isoform P78362-2): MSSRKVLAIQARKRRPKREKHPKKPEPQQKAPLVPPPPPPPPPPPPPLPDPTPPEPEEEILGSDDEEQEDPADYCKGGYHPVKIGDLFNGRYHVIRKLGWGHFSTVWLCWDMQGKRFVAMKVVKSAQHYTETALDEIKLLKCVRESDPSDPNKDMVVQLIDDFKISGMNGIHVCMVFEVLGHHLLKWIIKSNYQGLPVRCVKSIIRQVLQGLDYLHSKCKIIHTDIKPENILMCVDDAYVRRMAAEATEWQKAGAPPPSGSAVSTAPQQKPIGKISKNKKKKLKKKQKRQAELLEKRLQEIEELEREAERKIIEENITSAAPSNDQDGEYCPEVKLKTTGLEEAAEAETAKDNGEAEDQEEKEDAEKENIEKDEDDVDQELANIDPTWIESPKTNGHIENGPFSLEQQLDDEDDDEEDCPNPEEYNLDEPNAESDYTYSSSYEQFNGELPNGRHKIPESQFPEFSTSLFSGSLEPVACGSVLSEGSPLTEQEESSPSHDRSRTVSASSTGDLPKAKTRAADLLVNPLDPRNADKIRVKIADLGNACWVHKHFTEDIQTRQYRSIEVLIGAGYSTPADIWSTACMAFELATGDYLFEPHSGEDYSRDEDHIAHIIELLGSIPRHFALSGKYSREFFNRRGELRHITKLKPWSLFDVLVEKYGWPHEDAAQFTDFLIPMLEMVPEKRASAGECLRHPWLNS
Experimental: Infrared scans of ubiquitylated substrate signal (Top) and quantification (Bottom). Data represented as mean ± SEM (n = 3). […] (^∗) p = 0.0350. Phospho-Ser214 and total RNF12, REX1, and SRPK2 infrared immunoblots are shown. ^∗ = non-specific fluorescent signal. (B) Recombinant RNF12 was incubated with WT or kinase dead (KD) SRPK2 and subjected to REX1 fluorescent ubiquitylation assays. Infrared scans of ubiquitylated substrate signal (Top) and quantification (Bottom). Data represented as mean ± SEM (n = 3). […] (^∗∗∗∗) p < 0.0001. Phospho-Ser214 and total RNF12, REX1, and SRPK2 infrared immunoblots are shown. ^∗ = non-specific fluorescent signal. (C) Recombinant RNF12 was incubated with WT or KD SRPK2 and SMAD7 ubiquitylation assessed. Infrared scans of ubiquitylated substrate signal (Top) and quantification (Bottom). Data represented as mean ± SD (n = 2). Phospho-Ser214 and total RNF12, REX1, and SRPK2 infrared immunoblots are shown. ^∗ = non-specific fluorescent signal. (D) Recombinant RNF12 was incubated with WT (pRNF12) or KD (unpRNF12) SRPK2 and subjected to E2 ubiquitin discharge assay. Infrared immunoblot scans (Top Left), reaction rate determinations (Top Right) and normalized quantification of E2-ubiquitin conjugate signal (Bottom) are shown. […] RNF12, REX1, phospho-Ser214 RNF12 and SRPK1 infrared immunoblots (Top) and RNF12-REX1 binding quantification (bottom) are shown. […]

## CCc1cc2c(cc1-c1cccc(S(=O)(=O)F)c1)C(C)(C)c1[nH]c3cc(C#N)ccc3c1C2=O [SRPKIN-1]
[1]; 10 μM, HA-RNF12 immunoprecipitates, phos-tag and phospho-Ser214 multiplex immunoblot
  Ser214 phosphorylation of the high-mobility form of RNF12: completely dephosphorylated
[1]
  concentration leading to RNF12 SR-motif de-phosphorylation (as low as): 1 µM
[2]
  phosphorylation of SRSF4: only slightly inhibited
  phosphorylation of SRSF6/11, SRSF5/7/10: not significantly altered
[3]
  enhancement of REX1 ubiquitylation following RNF12 phosphorylation by SRPK2: not observed
